Reference: patent publication US10328075B2, “Method of treatment and compounds for use therein” (Baker Heart and Diabetes Institute, priority 2015, dated 2019)

Legend:
Assay type in all cases: cell-based
[1] = target: T1, hFPR1 (Homo sapiens, UniProt P21462); assay: Akt (Thr308) phosphorylation in hFPR1-FlpIn-CHO cells
T1 construct: expressed in transfected cells
T1 sequence (P21462 1-350): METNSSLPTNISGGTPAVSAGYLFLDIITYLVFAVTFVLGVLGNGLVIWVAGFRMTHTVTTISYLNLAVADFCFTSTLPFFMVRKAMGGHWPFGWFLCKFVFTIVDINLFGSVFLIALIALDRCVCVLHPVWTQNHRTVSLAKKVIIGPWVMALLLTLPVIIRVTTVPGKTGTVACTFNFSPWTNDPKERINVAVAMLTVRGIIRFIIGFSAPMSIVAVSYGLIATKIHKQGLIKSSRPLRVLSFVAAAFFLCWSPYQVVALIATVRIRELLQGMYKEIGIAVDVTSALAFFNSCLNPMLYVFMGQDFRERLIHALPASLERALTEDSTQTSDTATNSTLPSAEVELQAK
Excerpt: (§1) cDNDA construct and generation of stable cell lines: cDNA in pcDNA3.1^+ encoding the human formyl peptide receptors (FPR) subtypes, hFPR1, hFPR2 and hFPR3 was obtained from Invitrogen. The sequences for 3 hFPR receptors were amplified by PCR and cloned into the Gateway entry vector, pDONR202™, using the BP clonase enzyme mix, according to the manufactures' instructions (Invitrogen Inc, Carlsbad, Calif., USA). All hFPR receptors constructs in pDONR201™ were subsequently transfected into the pEF5/FRT/V5/dest vector using the LR clonase enzyme mix (Invitrogen). Receptor constructs (pEF5/FRT/V5/dest) were used to transfect FIp-In CHO cells as described previously (Valant C et al., PNAS, 2014). Cells were selected using 500 μg/mL hydromycin to generate cell lines stably expressing each receptor construct. Cells were maintained and cultured in high glucose DMEM supplemented with 10% FBS, 16 mM HEPES and 500 μg/mL hydromycin at 37° C. under a humidified atmosphere containing 5% CO2.
(§2) In the various assays described below, cells were plated into 96-well transparent cell culture plates at 4×10^4 cells per well, cultured overnight in serum-free media at 37° C. in 5% CO2.
(§3) Measurement of Akt1/2/3 phosphorylation and Akt 1: The same lysate was used for measurement of Akt1/2/3 phosphorylation (Ser473) and Akt1 (Thr308). Cells were lysed in SureFire lysis buffer and transferred to 384-well opaque proxiplates. Under low-light conditions, a 1:10:40 (v:v:v) dilution of AlphaScreen acceptor beads:Surefire activation buffer:Surefire reaction buffer was prepared and the plate was incubated in the dark at RT for 2 h. Then, a 1:20 (v:v) dilution of AlphaScreen donor beads/dilution was prepared and incubated in the dark at RT for another 2 h, before the fluorescence signal was measured by used of a Fusion-α plate reader (PerkinElmer Life and Analytical Sciences) with standard AlphaScreen settings. Receptor mediated phosphorylation of Akt1/2/3 (Ser473) and Akt1 (Thr308) were determined using the AlphaScreen™ […] SureFire™ kit, as per as per manufacturer's instructions. Data were normalized to the maximal response elicited by 10% (v:v) FBS at the same time point.
(§4) Data analysis: All data were analysed using GraphPad Prism 6.0 (GraphPad Software, San Deigo, Calif., USA). Where appropriate, concentration-response curves were fitted to derive the maximal agonist effect (Emax), and the ligand potency estimate (pEC50), where Emax is the maximal possible response of the system (not the agonist), basal is the basal level of response in the absence of agonist, and pEC50 is the negative logarithm of the agonist concentration that gives a response halfway between Emax and basal.
(§5) In the present study, FIp-IN CHO cells and Gateway plasmid were obtained from Invitrogen Inc (Carlsbad, Calif., USA). The sequences for all 3 known human FPRs (hFPR1, hFPR2 and hFPR3) were amplified by PCR and cloned into the Gateway entry vector, pDONR202TM, using the BP clonase enzyme mix, according to the manufacturers' instructions. The hFPR pDONR201TM constructs were subsequently transfected into the pEF5/FRT/V5/dest vector using the LR clonase enzyme mix (Invitrogen). Receptor constructs (pEF5/FRT/V5/dest) were used to transfect FIp-IN CHO cells, as described previously (Valant et al. 2014). Cells were selected using 500 μg/mL hydromycin to generate cell lines stably expressing each human receptor construct. Cells were maintained and cultured in high glucose Dulbecco's modified eagle medium (DMEM) supplemented with 10% fetal bovine serum (FBS, from JRH Biosciences, Lenexa, Kans., USA) and 500 μg/mL hydromycin B (Invitrogen Inc) at 37° C. under a humidified atmosphere containing 5% CO2. Cell were plated into 96-well transparent cell culture plates at 4×10^4 cells per well, cultured overnight in serum-free media at 37° C. in 5% CO2.

[2] = target: T1, hFPR1; assay: Akt1/2/3 (Ser473) phosphorylation in hFPR1-FlpIn-CHO cells
Excerpt: as §1, §2, §3, §4, §5

[3] = target: T1, hFPR1; assay: Inhibition of forskolin-stimulated cAMP accumulation in hFPR1-FlpIn-CHO cells; conditions: for Concentration-response profile on forskolin-stimulated cAMP accumulation at hFPR1: in words
Excerpt: as §1, §2
cAMP Accumulation: CHO-hFPR1, -hFPR2 and -hFPR3 stable transfected cells were plated into 96-well plates and cultured overnight at 37° C. in 5% CO2. Cells were washed with PBS, and cultured overnight. […] Cells were lysed in detection buffer (dH2O, 0.3% Tween 20, 5 mM HEPES, 0.1% BSA). Lysates were transferred to a 384-well plate and mixtures of detection buffer/donor bead-conjugated anti-cAMP antibody and detection buffer: biotinylated cAMP: acceptor bead-conjugated streptavidin were added to the lysates according to the PerkinElmer cAMP Alphascreen protocol. Under low-light conditions, a 1:50 (v:v) dilution of AlphaScreen acceptor beads: stimulation buffer was prepared, 1:150 (v:v) dilution of donor beads and 50 nM biotinylated cAMP in detection buffer was prepared in a 384-well opaque optiplates. Plates were incubated in the dark at room temperature overnight before the fluorescence signal was measured by use of a Fusion-α plate reader (PerkinElmer Life and Analytical Sciences). Data were normalized to the response elicited by 10 μM forskolin at the same time point.
as §4, §5

[4] = Table 8, normalized transduction coefficient, reference agonist Cmpd43
[5] = Table 8, transduction coefficient

CC(C)C1C(NC(=O)Nc2ccc(Cl)cc2)C(=O)N(c2ccccc2)N1C (centres unmarked) [BIDI-002]
Emax ([1]; Table 3, percentage of Akt1/2/3 phosphorylation elicited by 10% FBS, read-out: Emax (%), Akt 1 (Thr308) phosphorylation, hFPR1-Flpln-CHO): 15 ± 4% | EC50 ([1]; Table 3, read-out: pEC50, Akt 1 (Thr308) phosphorylation, hFPR1-Flpln-CHO (converted)): 129 nM | ΔLog(τ/KA), Akt 1/2/3 (Thr308) phosphorylation, hFPR1-Flpln-CHO [1, 4]: 0.0 | Emax ([1]; Table 8, percent of response elicited by 10% FBS, read-out: Emax, Akt 1/2/3 (Thr308) phosphorylation, hFPR1-Flpln-CHO): 15 ± 4% | EC50 ([1]; Table 8, read-out: pEC50, Akt 1/2/3 (Thr308) phosphorylation, hFPR1-Flpln-CHO (converted)): 126 nM | Log(τ/KA), Akt 1/2/3 (Thr308) phosphorylation, hFPR1-Flpln-CHO [1, 5]: 6.9 ± 0.3 | Emax ([2]; Table 3, percentage of Akt1/2/3 phosphorylation elicited by 10% FBS, read-out: Emax (%), Akt 1/2/3 (Ser473), hFPR1-Flpln-CHO): 13 ± 3% | EC50 ([2]; Table 3, read-out: pEC50, Akt 1/2/3 (Ser473), hFPR1-Flpln-CHO (converted)): 87.1 nM | ΔLog(τ/KA), Akt 1/2/3 (Ser473) phosphorylation, hFPR1-Flpln-CHO [2, 4]: 0.0 | Emax ([2]; Table 8, percent of response elicited by 10% FBS, read-out: Emax, Akt 1/2/3 (Ser473) phosphorylation, hFPR1-Flpln-CHO): 13 ± 3% | EC50 ([2]; Table 8, read-out: pEC50, Akt 1/2/3 (Ser473) phosphorylation, hFPR1-Flpln-CHO (converted)): 79.4 nM | Log(τ/KA), Akt 1/2/3 (Ser473) phosphorylation, hFPR1-Flpln-CHO [2, 5]: 6.9 ± 0.3 | Emax ([3]; Table 4, percentage inhibition of forskolin-stimulated cAMP accumulation, read-out: Emax (%), inhibition to cAMP accumulation, hFPR1-Flpln-CHO): 27 ± 20% | EC50 ([3]; Table 4, read-out: pEC50, inhibition to cAMP accumulation, hFPR1-Flpln-CHO (converted)): 74.1 nM | ΔLog(τ/KA), inhibition of cAMP accumulation, hFPR1-Flpln-CHO [3, 4]: 0.0 | Emax ([3]; Table 8, percent inhibition of forskolin-induced cAMP accumulation, read-out: Emax, inhibition of cAMP accumulation, hFPR1-Flpln-CHO): 27 ± 20% | EC50 ([3]; Table 8, read-out: pEC50, inhibition of cAMP accumulation, hFPR1-Flpln-CHO (converted)): 79.4 nM | Log(τ/KA), inhibition of cAMP accumulation, hFPR1-Flpln-CHO [3, 5]: 7.1 ± 0.3 | Concentration-response profile on forskolin-stimulated cAMP accumulation at hFPR1 [3]: bell-shaped curves | Concentration-response profile on forskolin-stimulated cAMP accumulation at hFPR1 ([3]; listed as Cmpd43): bi-phasic curve
